# Source: US8883789B2, “Piperazine derivatives and their use as positive allosteric modulators of mGluR5 receptors” (Boehringer Ingelheim International GmbH, priority 2011, dated 2014)
# Biological target: T1, human recombinant mGluR5 (Homo sapiens, UniProt P41594)
# T1 construct: expressed in transfected cells; hygromycin and geneticin selection
# Experiment: positive modulation of mGluR5, calcium based FLIPR assay
# Conditions: HEK 293 cell line expressing human recombinant mGluR5; Ca2+ peak height after glutamate at approximately 5% basal stimulation; nonlinear regression
# Summary of the method: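 HEK293 cells with tetracycline-free induction, Calcium-4 dye-loaded in Ringer pH 7.4. Compound added 5 min before glutamate at ~5% of maximal effect, 1% DMSO. EC50 from peak Ca2+ fluorescence, normalized to basal glutamate (100%) and 10 μM CDPPB (200%), via nonlinear regression.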
# T1 sequence (P41594 21-1212): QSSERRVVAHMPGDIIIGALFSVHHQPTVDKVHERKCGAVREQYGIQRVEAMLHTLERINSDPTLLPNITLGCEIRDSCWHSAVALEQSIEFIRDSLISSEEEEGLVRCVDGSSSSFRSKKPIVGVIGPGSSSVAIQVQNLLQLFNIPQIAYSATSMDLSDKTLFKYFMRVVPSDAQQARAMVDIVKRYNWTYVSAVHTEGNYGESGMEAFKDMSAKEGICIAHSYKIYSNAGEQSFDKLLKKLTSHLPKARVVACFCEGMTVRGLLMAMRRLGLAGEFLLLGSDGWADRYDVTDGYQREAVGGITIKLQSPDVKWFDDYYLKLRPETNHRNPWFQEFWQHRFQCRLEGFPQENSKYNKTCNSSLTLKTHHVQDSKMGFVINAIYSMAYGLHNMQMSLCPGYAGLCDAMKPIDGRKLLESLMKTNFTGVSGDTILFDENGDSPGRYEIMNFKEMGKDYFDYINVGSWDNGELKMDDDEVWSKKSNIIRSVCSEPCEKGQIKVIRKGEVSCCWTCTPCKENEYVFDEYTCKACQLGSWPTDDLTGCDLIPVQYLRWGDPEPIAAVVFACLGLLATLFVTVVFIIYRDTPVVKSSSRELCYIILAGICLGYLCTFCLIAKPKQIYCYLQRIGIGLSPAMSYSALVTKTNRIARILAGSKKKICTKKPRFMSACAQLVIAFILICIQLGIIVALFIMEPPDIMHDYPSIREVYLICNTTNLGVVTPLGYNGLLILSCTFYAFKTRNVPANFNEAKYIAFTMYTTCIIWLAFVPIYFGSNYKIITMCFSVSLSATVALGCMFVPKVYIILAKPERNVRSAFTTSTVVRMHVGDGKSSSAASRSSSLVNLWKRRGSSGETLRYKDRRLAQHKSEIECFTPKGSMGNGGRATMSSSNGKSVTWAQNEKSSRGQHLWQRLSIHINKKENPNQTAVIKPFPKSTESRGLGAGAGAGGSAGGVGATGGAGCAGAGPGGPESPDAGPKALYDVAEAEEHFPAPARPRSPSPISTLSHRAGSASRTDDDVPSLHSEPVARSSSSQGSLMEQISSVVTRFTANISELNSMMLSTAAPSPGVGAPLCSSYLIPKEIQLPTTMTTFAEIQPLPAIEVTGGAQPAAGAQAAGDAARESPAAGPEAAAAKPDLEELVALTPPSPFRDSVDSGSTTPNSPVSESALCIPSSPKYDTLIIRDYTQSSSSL
row,SMILES,EC50 [nM]
1,"Cc1noc(C)c1-c1cccc(C(=O)N2CCN(C(=O)c3ncn(-c4cccc(Cl)c4)n3)C(C)(C)C2)n1 [Example 90, [1-(3-Chloro-phenyl)-1H-[1,2,4]triazol-3-yl]-{4-[6-(3,5-dimethyl-isoxazol-4-yl)-pyridine-2-carbonyl]-2,2-dimethyl-piperazin-1-yl]-methanone]",38
2,CC1CN(C(=O)c2ncn(-c3cccc(Cl)c3)n2)CCN1C(=O)c1ccc(Cl)s1 (stereo not drawn) [Example 231],1780
3,"COc1cccc(C(=O)N2CCN(C(=O)c3ncn(-c4cccc(C)c4)n3)C[C@H]2C)n1 [Example 251, (R)-(6-Methoxy-pyridin-2-yl)-[2-methyl-4-(1-m-tolyl-1H-[1,2,4]-triazole-3-carbonyl)-piperazin-1-yl]-methanone]",886
4,COc1cccc(C(=O)N2CCN(C(=O)c3ncn(-c4cccc(Br)c4)n3)CC2C)n1 (stereo not drawn) [Example 245],357
5,CC1(C)CN(C(=O)c2csc(C3CC3)n2)CCN1C(=O)c1ncn(-c2ccccc2)n1 [Example 141],487
6,CC1CN(C(=O)c2sc3ccccc3c2Cl)CCN1C(=O)c1ncn(-c2cccc(Cl)c2)n1 (stereo not drawn) [Example 271],621
7,Cc1oc2ccc(F)cc2c1C(=O)N1CCN(C(=O)c2ncn(-c3ccccc3)n2)C(C)(C)C1 [Example 102],49
8,"COc1cccc(C(=O)N2CCN(C(=O)c3ncn(-c4cccc(C)c4)n3)C(C)C2)n1 (stereo not drawn) [Example 296, [4-(6-Methoxy-pyridine-2-carbonyl)-2-methyl-piperazin-1-yl]-(1-m-tolyl-1H-[1,2,4]-triazol-3-yl)-methanone]",269
9,CC1(C)CN(C(=O)c2c(Cl)nc3sccn23)CCN1C(=O)c1ncn(-c2cccc(Cl)c2)n1 [Example 63],89
10,CC1(C)CN(C(=O)c2cccc(C3CC3)n2)CCN1C(=O)c1nnn(-c2cccc(F)c2)n1 [Example 185],36
11,COc1cccc(C(=O)N2CCN(C(=O)c3ncn(-c4ccccc4)n3)C(C)(C)C2)c1 [Example 122],213
12,O=C(c1cccc(Cl)c1)N1CCN(C(=O)c2ncn(-c3ccccc3)n2)C2(CCCC2)C1 [Example 309],145
13,CC1(C)CN(C(=O)c2cccc(-c3cnco3)c2)CCN1C(=O)c1ncn(-c2cccc(Cl)c2)n1 [Example 28],99
14,CC1(C)CN(C(=O)c2cccc(C(F)(F)F)c2)CCN1C(=O)c1nnn(-c2ccccc2)n1 [Example 166],15
15,Cc1cccc(-n2cnc(C(=O)N3CCN(C(=O)c4cccc(C5CC5)n4)CC3(C)C)n2)c1 [Example 181],19
16,CCCOc1cccc(C(=O)N2CCN(C(=O)c3ncn(-c4cccc(Cl)c4)n3)C(C)(C)C2)c1 [Example 20],53
17,CC1(C)CN(C(=O)c2cncc(C(F)(F)F)n2)CCN1C(=O)c1ncn(-c2cccc(Cl)c2)n1 [Example 49],222
18,CC1(C)CN(C(=O)c2cccc(-c3nccs3)c2)CCN1C(=O)c1ncn(-c2cccc(Cl)c2)n1 [Example 26],72
19,CC1(C)CN(C(=O)c2csc(C(F)(F)F)n2)CCN1C(=O)c1ncn(-c2ccccc2)n1 [Example 152],291
20,COc1cccc(C(=O)N2CCN(C(=O)c3ncn(-c4cccc(F)c4)n3)C3(CCC3)C2)n1 [Example 307],754

row,SMILES,EC50 [nM]
1,CC1(C)CN(C(=O)c2cccc(C3CCCC3)c2)CCN1C(=O)c1ncn(-c2ccccc2)n1 [Example 144],23
2,"CC(C)c1cccc(C(=O)N2CCN(C(=O)c3ncn(-c4ccccc4)n3)C(C)(C)C2)c1 [Example 96, [4-(3-Isopropyl-benzoyl)-2,2-dimethyl-piperazin-1-yl]-(1-phenyl-1H-[1,2,4]triazol-3-yl)-methanone]",25
3,COc1cccc(C(=O)N2CCN(C(=O)c3ncn(-c4cccc(Cl)c4)n3)CC2C)n1 (stereo not drawn) [Example 211],264
4,"CC1(C)CN(C(=O)c2cccc(C3CCCC3)n2)CCN1C(=O)c1ncn(-c2cccc(Cl)c2)n1 [Example 177, [1-(3-Chloro-phenyl)-1H-[1,2,4]-triazol-3-yl]-[4-(6-cyclopentyl-pyridine-2-carbonyl]-2,2-dimethyl-piperazin-1-yl]-methanone]",37
5,"COc1cccc(C(=O)N2CCN(C(=O)c3ncn(-c4cccc(Cl)c4)n3)[C@@H](C)C2)n1 [Example 300, (S)-{4-[1-(3-Chloro-phenyl)-1H-[1,2,4]triazole-3-carbonyl]-3-methyl-piperazin-1-yl}-(6-methoxy-pyridin-2-yl)-methanone]",154
6,CC1(C)CN(C(=O)c2coc(C3CC3)n2)CCN1C(=O)c1ncn(-c2ccccc2)n1 [Example 140],661
7,Cc1c(C(=O)N2CCN(C(=O)c3ncn(-c4cccc(Cl)c4)n3)C(C)C2)oc2c(F)cccc12 (stereo not drawn) [Example 284],858
8,CC(C)COc1cccc(C(=O)N2CCN(C(=O)c3ncn(-c4cccc(Cl)c4)n3)CC2C)c1 (stereo not drawn) [Example 216],612
9,COc1ccc2oc(C)c(C(=O)N3CCN(C(=O)c4ncn(-c5ccccc5)n4)CC3C)c2c1 (stereo not drawn) [Example 242],114
10,COc1cc(Cl)cc(C(=O)N2CCN(C(=O)c3ncn(-c4ccccc4)n3)C(C)(C)C2)c1 [Example 121],123
11,COC(C)c1cccc(C(=O)N2CCN(C(=O)c3ncn(-c4ccccc4)n3)C(C)(C)C2)c1 (stereo not drawn) [Example 116],388
12,Cc1oc2ccccc2c1C(=O)N1CCN(C(=O)c2ncn(-c3ccccc3)n2)C(C)(C)C1 [Example 106],89
13,CC1CN(C(=O)c2cccc(-c3nccs3)c2)CCN1C(=O)c1ncn(-c2cccc(Cl)c2)n1 (stereo not drawn) [Example 270],677
14,CC1(C)CN(C(=O)c2cccc(C(F)(F)F)c2)CCN1C(=O)c1ncn(-c2cccc(Cl)c2)n1 [Example 14],25
15,COCC1(C)CN(C(=O)c2cccc(OC)n2)CCN1C(=O)c1ncn(-c2cccc(C)c2)n1 (stereo not drawn) [Example 310],802
16,COc1ccc2oc(C)c(C(=O)N3CCN(C(=O)c4ncn(-c5ccccc5)n4)C(C)C3)c2c1 (stereo not drawn) [Example 291],47
17,"COc1cccc(C(=O)N2CCN(C(=O)c3ncn(-c4cccc(Cl)c4)n3)C[C@H]2C)n1 [Example 248, (R)-{4-[1-(3-Chloro-phenyl)-1H-[1,2,4]triazole-3-carbonyl]-2-methyl-piperazin-1-yl}-(6-methoxy-pyridin-2-yl)-methanone]",169
18,Cc1oc2ccccc2c1C(=O)N1CCN(C(=O)c2ncn(-c3cccc(F)c3)n2)C(C)(C)C1 [Example 5],131
19,CCCOc1nc(C(=O)N2CCN(C(=O)c3ncn(-c4cccc(Cl)c4)n3)C(C)(C)C2)cc2ccccc12 [Example 87],105
20,CC1(C)CN(C(=O)c2ccc3ccccc3c2)CCN1C(=O)c1ncn(-c2cccc(Cl)c2)n1 [Example 24],61

row,SMILES,EC50 [nM]
1,CC1CN(C(=O)c2ncn(-c3cccc(Cl)c3)n2)CCN1C(=O)c1cc(Cl)c2c(c1)OCCO2 (stereo not drawn) [Example 221],174
2,Cc1cccc(-n2cnc(C(=O)N3CCN(C(=O)c4c(C)oc5ccccc45)CC3(C)C)n2)c1 [Example 10],95
3,COc1cc(Cl)cc(C(=O)N2CCN(C(=O)c3nnn(-c4cccc(Cl)c4)n3)C(C)(C)C2)n1 [Example 172],26
4,CC1(C)CN(C(=O)c2cccc(OC(F)(F)F)c2)CCN1C(=O)c1ncn(-c2cccc(Cl)c2)n1 [Example 37],388
5,CC1(C)CN(C(=O)c2cc3nccc(-c4ccccc4)n3n2)CCN1C(=O)c1ncn(-c2cccc(Cl)c2)n1 [Example 67],29
6,CC1(C)CN(C(=O)c2cccc3c2OCO3)CCN1C(=O)c1ncn(-c2cccc(Cl)c2)n1 [Example 48],127
7,Cc1cc(C(=O)N2CCN(C(=O)c3ncn(-c4cccc(Cl)c4)n3)C(C)(C)C2)ccc1F [Example 64],262
8,Cc1nn(C)cc1-c1cccc(C(=O)N2CCN(C(=O)c3ncn(-c4cccc(Cl)c4)n3)C(C)(C)C2)n1 [Example 93],242
9,CC1CN(C(=O)c2ncn(-c3cccc(Cl)c3)n2)CCN1C(=O)c1cc2c(Cl)cccc2s1 (stereo not drawn) [Example 223],330
10,COc1cccc(C(=O)N2C[C@@H](C)N(C(=O)c3ncn(-c4cccc(F)c4)n3)[C@@H](C)C2)n1 [Example 303],215
11,"COc1cccc(C(=O)N2CCN(C(=O)c3ncn(-c4cccc(Cl)c4)n3)CC2(C)C)n1 [Example 257, {4-[1-(3-Chloro-phenyl)-1H-[1,2,4]triazole-3-carbonyl]-2,2-dimethyl-piperazin-1-yl}-(6-methoxy-pyridin-2-yl)-methanone]",1100
12,"COc1cccc(C(=O)N2CCN(C(=O)c3ncn(-c4cccc(Cl)c4)n3)C(C)C2)n1 (stereo not drawn) [Example 265, {4-[1-(3-Chloro-phenyl)-1H-[1,2,4]-triazole-3-carbonyl]-3-methyl-piperazin-1-yl}-(6-methoxy-pyridin-2-yl)-methanone]",194
13,Cc1cc(Cl)cc(C(=O)N2CCN(C(=O)c3ncn(-c4cccc(Cl)c4)n3)C(C)(C)C2)n1 [Example 36],383
14,CC1(C)CN(C(=O)c2cccc(Cl)c2)CCN1C(=O)c1nnn(-c2ccccc2F)n1 [Example 196],156
15,"CC1(C)CN(C(=O)c2cccc(Cl)c2)CCN1C(=O)c1ncn(-c2ccccc2)n1 [Example 186, [4-(3-Chloro-benzoyl)-2,2-dimethyl-piperazin-1-yl]-(1-phenyl-1H-[1,2,4]-triazol-3-yl)-methanone]",39
16,CC1CN(C(=O)c2ncn(-c3cccc(Cl)c3)n2)CCN1C(=O)c1ccc2ccn(C)c2c1 (stereo not drawn) [Example 222],294
17,CC1(C)CN(C(=O)c2ccnc(C(F)(F)F)c2)CCN1C(=O)c1ncn(-c2cccc(Cl)c2)n1 [Example 88],375
18,COc1cc(Cl)cc(C(=O)N2CCN(C(=O)c3nnn(-c4ccccc4)n3)C(C)(C)C2)n1 [Example 165],25
19,COc1cc(C(=O)N2CCN(C(=O)c3ncn(-c4cccc(C)c4)n3)CC2C)ccc1C (stereo not drawn) [Example 235],314
20,Cc1cccc(-n2cnc(C(=O)N3CCN(C(=O)c4cc(Cl)c5c(c4)OCCO5)CC3C)n2)c1 (stereo not drawn) [Example 289],487
